The test system of series [1] is SARS-CoV-2 (WA-1). In words: Antiviral immunofluorescence assay, SARS-CoV-2 WA1 in Huh7.5 cells. The class given is cell-based. To be noted: WA-1, Huh7.5 cells, immunofluorescence, 48 hpi; for EC50: read-out: EC50; for EC90: read-out: EC90.
Series [2] concerns SARS-CoV-2 (WA-1). In words: Antiviral immunofluorescence assay, SARS-CoV-2 WA1 in Vero-TMPRSS2 cells. The class given is cell-based.
The subject of series [3] is SARS-CoV-2 (WA-1). Also noted: method as in PMID 34310217. Conditions: Huh7.5 cells; read-out: EC50, inhibition of SARS-CoV-2 replication; cited from earlier work.
Series [4] in a line: in vitro. Conditions: human.
Series [5] is described as follows: in vitro. To be noted: chlorocebus aethiops.
Protocol: Cells were seeded as per SARS-CoV-2 infection studies in opaque walled 96-well cell culture plates and incubated overnight for Huh7.5 and Vero-TMPRSS2 cells and for an additional 24h for Calu-3 cells. Compounds or controls were added at the indicated concentrations. Cells were incubated for 48h for Huh7.5 cells, 40–44h for Calu-3 cells, or 30–32h for Vero-TMPRSS2 cells at 37 °C and 5% CO2, an equal volume of CellTiter-Glo reagent (Cat. #G7570, Promega) or CellTiter-Glo 2.0 reagent (Cat. #G9241, Promega) was added and mixed, and luminescence was recorded on a Veritas Microplate Luminometer (Turner BioSystems) according to manufacturer recommendations. Percent viability was calculated compared to DMSO controls, and CC50 values were calculated using Prism 9.
Calu-3 cells were treated for 44h (A), Huh7.5 cells were treated for 48h (B), and Vero-
TMPRSS2 cells were treated for 38h (C) as in infection assays for each cell type. Cell viability
was measured by CellTiter-Glo assay and reported as % cell viability relative to DMSO controls.
Best fit curves calculated in Graphpad Prism 9 were used
to compute cytotoxic concentration 50% (CC50) values in Tables 1-3.
In series [6] the test system is SARS-CoV-2 BA.1 (Omicron). In words: microbe, parasite or virus in culture. In kind it is cell-based. To be noted: Severe acute respiratory syndrome coronavirus 2, Calu-3.
In series [7] the test system is SARS-CoV-2 WA1 (USA-WA1/2020). In words: Antiviral immunofluorescence assay, SARS-CoV-2 WA1 in Calu-3 cells. The class given is cell-based. To be noted: immunofluorescence, 44 hpi, mean ± SD.
The conditions of series [8]: hamster, in vivo; cited from earlier work.
The test system of series [9] is SARS-CoV-2 B.1.351 (Beta). In words: microbe, parasite or virus in culture. In kind it is cell-based. Conditions: Severe acute respiratory syndrome coronavirus 2, Calu-3.
The test system of series [10] is SARS-CoV-2 B.1.617.2 (Delta). In words: microbe, parasite or virus in culture. In kind it is cell-based. Conditions: Severe acute respiratory syndrome coronavirus 2, Calu-3.
Another series deals with SARS-CoV-2 P.1 (Gamma). In words: microbe, parasite or virus in culture. To be noted: Severe acute respiratory syndrome coronavirus 2, Calu-3. The class given is cell-based.
Series [11] deals with Calu-3 cells. To be noted: human, 44 h.
A short description of series [12]: in vitro. To be noted: human. This is another data set of the same source.
Series [13] concerns SARS-CoV-2 (WA-1). In words: Antiviral immunofluorescence assay, SARS-CoV-2 WA1 in human pluripotent stem cell-derived lung cells. The class given is cell-based. Conditions: 24 hpi.
Series [14] has as its system SARS-CoV-2 B.1.1.7 (Alpha). In words: microbe, parasite or virus in culture. The class given is cell-based. Conditions: Severe acute respiratory syndrome coronavirus 2, Calu-3.
Series [15] deals with Calu-3 cells. To be noted: cited from earlier work.
In series [16] the test system is SARS-CoV-2 WA1 (USA-WA1/2020). Details: method as in Schooley et al.[24]. To be noted: Calu-3 cells, ref Schooley et al.[24]; cited from earlier work.
The test system of the next series is Vero-TMPRSS2 cells. In words: Cell viability assay (CellTiter-Glo), Vero-TMPRSS2 cells. Conditions: uninfected Vero-TMPRSS2 cells, 38h.
The subject of series [17] is Calu-3 cells. In words: Cell viability assay (CellTiter-Glo), Calu-3 cells. To be noted: uninfected Calu-3 cells, 44h.
Another series has as its system Huh7.5 cells. In words: Cell viability assay (CellTiter-Glo), Huh7.5 cells. Conditions: uninfected Huh7.5 cells, 48h. For orientation: Cellular ATP, detected with luciferase, serves as a proxy for viable cell number.
Series [18] relates to human pluripotent stem cell-derived lung cells. In words: Cytotoxicity by relative number of nuclei, human pluripotent stem cell-derived lung cells. To be noted: PSC-lung cells, relative number of nuclei (IF) vs vehicle-treated wells.
[19] abbreviates: Severe acute respiratory syndrome coronavirus 2.
[20] abbreviates: WA1, Calu-3 cells, read-out: EC50.
Where [21] appears, read: Severe acute respiratory syndrome coronavirus 2, WA-1, PSC-lung cells (ALDA 31616 and H9).
The mark [22] stands for this setting: WA-1, PSC-lung cells (ALDA 31616 and H9).

In general, EC50 refers to the midpoint of the concentration-response curve. Broadly, the EC90 is the point of the concentration-response curve where the effect stands at 90%.

Where two headings read alike, the source gives them in different places.

Take `CCCCCCCCCCCCCCCCCCOC[C@H](COP(=O)(O)OC[C@H]1O[C@@](C#N)(c2ccc3c(N)ncnn23)[C@H](O)[C@@H]1O)OCc1ccccc1` [Compound V2043, 1-O-octadecyl-2-O-benzyl-sn-glyceryl-phospho-RVn]: the EC50 in the series with SARS-CoV-2 (WA-1) [1] (setting [19]) was 140 ± 63 nM; in the series on SARS-CoV-2 (WA-1) [2] (Severe acute respiratory syndrome coronavirus 2, Vero/TMPRSS2), 216 ± 38 nM; with SARS-CoV-2 (WA-1) [3], 138 nM; in series [6], 44 ± 12 nM; in series [7] (Severe acute respiratory syndrome coronavirus 2, Calu-3, WA1, Calu-3 cells), 138 nM; in [7] (setting [20]) it was 136 ± 56 nM. The EC50 stood at 146 ± 104 nM in series [9]; 85 ± 24 nM in series [10]; 167 ± 84 nM with SARS-CoV-2 P.1 (Gamma); 382 ± 205 nM in the series with SARS-CoV-2 (WA-1) [13] (setting [21]); 146 ± 95 nM in series [14]. Also, the EC90 in the series on SARS-CoV-2 (WA-1) [1] (setting [19]) turned out to be 424 ± 267 nM; in the series on SARS-CoV-2 (WA-1) [2] (Severe acute respiratory syndrome coronavirus 2, WA-1, Vero-TMPRSS2 cells, immunofluorescence, 38 hpi), 403 ± 128 nM; in series [6], 359 ± 447 nM; in [7] (Severe acute respiratory syndrome coronavirus 2, WA1, Calu-3 cells), 323 ± 157 nM; in series [9] it was 645 ± 459 nM; in series [10] it was 484 ± 457 nM. In addition, the EC90 worked out at 362 ± 42 nM in the series with SARS-CoV-2 P.1 (Gamma), 736 ± 267 nM with SARS-CoV-2 (WA-1) [13] (setting [21]) and 517 ± 169 nM in [14]. Further, in the series “in vitro [4]”, the CC50 at 44 h was found to be 58300 nM. Further, in the series “in vitro [5]”, the CC50 at 38 h was found to be 97900 nM. Also, the oral bioavailability result in [8] was “orally bioavailable”. This compound showed a CC50 with Calu-3 cells [11] of 58300 nM. The CC50 at 24 h in the series “in vitro [12]” was over 20000 nM.

As for `CCC(CC)COC(=O)[C@H](C)N[P@](=O)(OC[C@H]1O[C@@](C#N)(c2ccc3c(N)ncnn23)[C@H](O)[C@@H]1O)Oc1ccccc1` [RDV, remdesivir], the CC50 in the series with Calu-3 cells [15] (Calu-3 cells, ref Schooley et al.[24]) is over 100000 nM. In series [16], the EC50 was 230 nM and the concentration for an effect of 90% (EC90) was 310 nM.

As to `N#C[C@@]1(c2ccc3c(N)ncnn23)O[C@H](CO)[C@@H](O)[C@H]1O` [RVn, GS-441524], the CC50 in the series on Calu-3 cells [15] is over 100000 nM.

For “((2R,3S,4R,5R)-5-(4-Aminopyrrolo[2,1-f][1,2,4]triazin-7-yl)-5-cyano-3,4-dihydroxytetrahydrofuran-2-yl)methyl ((R)-2-(benzyloxy)-7-(tetradec-5-en-1-yloxy)heptyl) hydrogen phosphate [Compound 10a]”, the CC50 is over 100000 nM with Vero-TMPRSS2 cells, 79200 nM in the series on Calu-3 cells [17], over 100000 nM in the series with Huh7.5 cells and over 20000 nM in series [18]. Further, the EC50 was determined as 109 ± 55 nM with SARS-CoV-2 (WA-1) [1]; 293 ± 20 nM with SARS-CoV-2 (WA-1) [2] (WA-1, Vero-TMPRSS2 cells, immunofluorescence, 38 hpi, read-out: EC50); 193 ± 58 nM in series [7] (setting [20]); 267 ± 118 nM in the series with SARS-CoV-2 (WA-1) [13] (setting [22]). Besides, the EC90 in the series on SARS-CoV-2 (WA-1) [1] was found to be 224 ± 100 nM; in the series on SARS-CoV-2 (WA-1) [2] (WA-1, Vero-TMPRSS2 cells, immunofluorescence, 38 hpi) it was 570 ± 54 nM; in series [7] (WA1, Calu-3 cells) it was 324 ± 127 nM; in the series with SARS-CoV-2 (WA-1) [13] (setting [22]), 555 ± 250 nM.
